# Measurements as given in PMC10636063, “Progesterone activation of β1-containing BK channels involves two binding sites” (Nature Communications, 2023).
# Assays:
# [1] = tested on: slo1 (cbv1 isoform)+β4 BK channels; assay: Channel activity (NPo) in POPE/POPS bilayers, cbv1+β4; type: biochemical, rat; details: 10 μM
# Source text: (§1) BK channel-forming slo1 cDNA (cbv1 isoform; AY330293) was cloned from rat cerebral artery SM cells, and inserted into pcDNA3.1 vector as described. BK β1 cDNA (KCNMB1 product; NP_011452; FJ154955) were isolated from rat cerebral artery SM cells and cloned as described. β4 cDNA (KCNMB4; NP_055320; AY028605) were generously provided by Dr. Ligia Toro. CHO cells were transiently transfected with cbv1 ± β1-, or β4-carrying pcDNA3.1 using X-tremeGENE HP (Sigma-Aldrich). […]
# (§2) Proteins for electrophysiological recordings in artificial lipid bilayers remained untagged. […] BK channel-mediated ionic current was recorded in planar lipid bilayers consisting of a POPE:POPS 3:1 (w/w) mixture. […]
# (§3) Patch-clamp and bilayer data were analyzed using Clampfit 10.7 software (Molecular Devices). […] Drug-induced NPo changes were determined by comparing baseline NPo (i.e., NPo with the patch/cell perfused with bath solution) to the NPo from the same patch/cell exposed to the agent under study (DMSO/PROG/oxime) dissolved in bath solution. NPo and mean open time values were automatically calculated using Clampfit 10.7, the latter using a 50% threshold detection event.
# [2] = target: T1, cbv1+β1W87F (Rattus norvegicus, UniProt P97678, W87F); assay: Channel activity (NPo) in POPE/POPS bilayers, cbv1+β1W87F; type: biochemical
# T1 construct: made in house; host or cells: CHO cells, transient transfection; sucrose-gradient membrane preparation
# Source text: as §1, §2, §3
# [3] = tested on: de-endothelialized, pressurized MCA segments (C57BL/6 male); assay: EtOH-induced constriction of pressurized MCA in vitro; design: species or system mouse; details: 10 µM PROG, 10-75 mM EtOH
# Source text: Eight-12 week-old C57BL/6J and KCNMB1^−/− on C57BL/6 background mice of both sexes were deeply anesthetized with isoflurane via inhalation in a tightly sealed jar. Resistance size MCAs (~100 μm in external diameter) were dissected out of the mouse brains after animal euthanasia with sharp scissors. For de-endothelialized records, the endothelium was removed by passing an air bubble into the vessel lumen for 90 s[30]. This method has been consistently used by our group and validated using endothelium-dependent versus endothelium-independent vasodilators[16],[26]. Arteries were cannulated as previously described by our group[26],[40]. MCAs were cut into 5 to 10 mm-long segments under a microscope (Nikon SMZ645). The segment was cannulated at each end, and the artery exterior was continuously perfused with physiologic sodium saline (PSS) of the following composition (mM): 119 NaCl, 4.7 KCl, 1.2 KH2PO4, 1.6 CaCl2, 1.2 MgSO4, 0.023 EDTA, 11 glucose, 24 NaHCO3, pH=7.4. PSS was continuously bubbled with an O2/CO2/N2 (21/5/74%) gas mixture and maintained at 35–37 °C. The artery external wall diameter was measured using the automatic edge-detection function of lonWizard software (lonOptix) via Sanyo VCB-3512T camera (Sanyo Electric Co.). Arteries were first incubated at an intravascular pressure of 10 mm Hg for 10 min. Then intravascular pressure was increased to 60 mmHg and held steady throughout the experiment to induce myogenic tone development and maintenance[19],[30],[51]. Each artery segment was exposed to PROG, PROG-oxime (in presence and absence of 1 µM paxilline) only once to avoid development of desensitization during repeated applications of PROG-containing solution. To determine arterial viability, arterial contractility was probed with a high KCl solution at the end of each experiment. The high KCl solution was composed of the following composition (mM): 63.7 NaCl, 60 KCl, 1.2 KH2PO4, 1.2 MgSO4, 0.023 EDTA, 11 glucose, 24 NaHCO3, 1.6 CaCl2, pH=7.4. Like PSS, the high-KCl solution was continuously bubbled with O2/CO2/N2 (21/5/74%) gas mixture and maintained at 35–37 °C.
# [4] = tested on: MCA branches (C57BL/6J); assay: EtOH-induced cerebrovascular constriction in vivo (cranial window); design: species or system mouse; details: 10 µM PROG + 50 mM EtOH infused
# Experimental: Eight-12 week-old male and female C57BL/6J mice were anesthetized with a mixture of xylazine/ketamine (12/100 mg per kg) and kept anesthetized for the duration of the experiment with subsequent ketamine doses (50 mg/kg of weight) as needed. A catheter was inserted into the carotid artery so that the infusion went straight to the brain rather than towards the thoracic cavity. An area of the skull was cleared of tissue and thinned to expose the branching arteries originating from the MCA on the side the catheter was inserted, above the zygomatic arch, between the ear and eye of the skull[19],[34]. The exposed arteries branching out from the MCA were monitored using a Leica MC170 HD microscope with a mounted camera (Leica M125 C) connected to a computer monitor. Drugs were diluted to their final concentration in sodium saline (0.9% NaCl) and administered via catheter at 0.1 ml/25 g of weight. Cranial window images before and after drug administration were acquired every 60 seconds for subsequent analysis.
# T1 sequence (P97678 whole entry W87F): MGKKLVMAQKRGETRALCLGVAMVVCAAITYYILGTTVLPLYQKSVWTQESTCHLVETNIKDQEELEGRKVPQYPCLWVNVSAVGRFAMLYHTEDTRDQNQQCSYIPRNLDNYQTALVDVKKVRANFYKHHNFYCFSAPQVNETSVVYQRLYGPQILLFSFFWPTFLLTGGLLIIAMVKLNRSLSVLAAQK
# T1 sequence (Q62976 1-1148 isoform Q62976-2 partner): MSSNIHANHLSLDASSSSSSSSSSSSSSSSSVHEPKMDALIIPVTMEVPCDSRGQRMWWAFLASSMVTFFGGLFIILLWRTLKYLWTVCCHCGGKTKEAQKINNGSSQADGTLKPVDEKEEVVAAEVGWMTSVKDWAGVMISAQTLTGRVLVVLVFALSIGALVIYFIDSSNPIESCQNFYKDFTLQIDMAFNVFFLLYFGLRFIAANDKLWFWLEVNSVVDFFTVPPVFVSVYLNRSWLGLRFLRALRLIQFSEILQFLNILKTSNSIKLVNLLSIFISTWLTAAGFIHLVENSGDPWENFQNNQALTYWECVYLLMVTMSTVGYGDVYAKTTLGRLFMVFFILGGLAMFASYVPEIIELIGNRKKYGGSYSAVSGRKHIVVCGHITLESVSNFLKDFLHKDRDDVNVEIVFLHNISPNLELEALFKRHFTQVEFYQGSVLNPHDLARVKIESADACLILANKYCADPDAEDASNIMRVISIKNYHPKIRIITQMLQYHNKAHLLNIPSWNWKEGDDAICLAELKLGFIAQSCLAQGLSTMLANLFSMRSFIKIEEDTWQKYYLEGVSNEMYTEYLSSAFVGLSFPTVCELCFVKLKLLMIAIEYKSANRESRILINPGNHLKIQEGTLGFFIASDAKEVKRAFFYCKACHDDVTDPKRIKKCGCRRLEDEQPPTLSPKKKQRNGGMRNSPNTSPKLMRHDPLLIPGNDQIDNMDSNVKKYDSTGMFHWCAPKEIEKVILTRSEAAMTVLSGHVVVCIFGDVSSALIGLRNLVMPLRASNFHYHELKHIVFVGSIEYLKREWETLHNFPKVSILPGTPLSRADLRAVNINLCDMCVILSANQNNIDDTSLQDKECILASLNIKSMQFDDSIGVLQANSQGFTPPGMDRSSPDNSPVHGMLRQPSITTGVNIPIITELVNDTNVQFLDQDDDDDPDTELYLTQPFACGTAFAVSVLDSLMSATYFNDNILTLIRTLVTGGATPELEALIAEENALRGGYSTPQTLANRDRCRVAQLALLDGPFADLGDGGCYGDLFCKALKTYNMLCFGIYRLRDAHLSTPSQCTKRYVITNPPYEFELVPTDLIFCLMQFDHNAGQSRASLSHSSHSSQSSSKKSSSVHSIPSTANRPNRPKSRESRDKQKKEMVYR
smiles,measurement,setting,value
"CC(=O)[C@H]1CC[C@H]2[C@@H]3CCC4=CC(=O)CC[C@]4(C)[C@H]3CC[C@]12C [PROG, Progesterone]",action on channel activity (NPo),[1],readily and robustly activated
same,action on channel activity (NPo),"[2]; 10 µM, vs vehicle",effectively abolished PROG action
same,"normalized NPo, time course Fig 4E","[2]; cbv1+w87F prog, time 1 min (normalisation reference)",1
same,effect on EtOH-induced vasoconstriction,[3],blunted EtOH-induced vasoconstriction at all alcohol concentrations
same,effect on EtOH-induced cerebrovascular constriction,[4],still protected against EtOH-induced cerebrovascular constriction
